Measurements taken from publication PMC6402191 (Clinical and Translational Science, 2017).
Where “and” joins values, the source holds several entries; their conditions need not be identical. Equal values may be shown once. Entries after “also recorded” stand apart in the source; their conditions may differ.

Experiments:
OAT3 [1] = molecular target: T1, OAT3 (Homo sapiens, UniProt Q8TCC7); assay: Uptake of baricitinib into OAT3-transfected HEK-PEAK cells; assay type: in vitro ADME
T1 sequence (Q8TCC7 1-542): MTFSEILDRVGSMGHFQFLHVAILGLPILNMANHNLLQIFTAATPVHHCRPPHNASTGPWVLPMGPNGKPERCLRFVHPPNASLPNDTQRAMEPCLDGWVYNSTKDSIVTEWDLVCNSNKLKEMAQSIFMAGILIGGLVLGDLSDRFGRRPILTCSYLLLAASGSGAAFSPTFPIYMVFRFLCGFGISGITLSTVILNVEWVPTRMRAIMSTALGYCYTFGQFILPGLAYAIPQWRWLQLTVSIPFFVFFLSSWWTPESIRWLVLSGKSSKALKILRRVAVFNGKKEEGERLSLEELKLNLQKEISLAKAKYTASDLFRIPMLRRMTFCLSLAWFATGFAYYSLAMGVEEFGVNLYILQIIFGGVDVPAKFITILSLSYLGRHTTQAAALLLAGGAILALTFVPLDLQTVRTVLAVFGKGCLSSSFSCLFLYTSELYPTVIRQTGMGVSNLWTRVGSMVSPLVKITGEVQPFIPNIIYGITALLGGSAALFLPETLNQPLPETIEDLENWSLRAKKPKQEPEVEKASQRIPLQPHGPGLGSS

BCRP = molecular target: T2, BCRP (Homo sapiens, UniProt Q9UNQ0); assay: Bidirectional transport of baricitinib in MDCK-BCRP cells; assay type: in vitro ADME
T2 sequence (Q9UNQ0 1-655): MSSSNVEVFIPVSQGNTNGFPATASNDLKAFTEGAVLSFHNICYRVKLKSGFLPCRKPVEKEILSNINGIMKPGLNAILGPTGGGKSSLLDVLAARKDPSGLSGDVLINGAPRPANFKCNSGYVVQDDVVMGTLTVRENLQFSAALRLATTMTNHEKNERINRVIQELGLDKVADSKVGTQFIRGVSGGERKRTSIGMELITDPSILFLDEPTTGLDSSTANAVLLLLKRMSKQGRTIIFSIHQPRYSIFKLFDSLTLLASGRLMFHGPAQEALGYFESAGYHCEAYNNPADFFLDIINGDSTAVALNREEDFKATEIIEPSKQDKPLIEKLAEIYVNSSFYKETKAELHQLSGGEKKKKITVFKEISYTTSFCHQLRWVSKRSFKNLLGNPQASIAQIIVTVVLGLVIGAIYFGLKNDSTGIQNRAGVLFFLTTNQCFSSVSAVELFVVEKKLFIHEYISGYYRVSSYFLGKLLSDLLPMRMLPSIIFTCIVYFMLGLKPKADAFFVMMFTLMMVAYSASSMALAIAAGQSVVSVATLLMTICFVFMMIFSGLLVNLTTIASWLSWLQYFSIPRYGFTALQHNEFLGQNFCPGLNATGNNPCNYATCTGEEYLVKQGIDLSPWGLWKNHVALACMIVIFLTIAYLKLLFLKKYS

OAT1 = molecular target: T3, OAT1 (Homo sapiens, UniProt Q4U2R8); assay: Baricitinib substrate study in OAT1-transfected HEK-PEAK cells; assay type: in vitro ADME
T3 sequence (Q4U2R8 1-563): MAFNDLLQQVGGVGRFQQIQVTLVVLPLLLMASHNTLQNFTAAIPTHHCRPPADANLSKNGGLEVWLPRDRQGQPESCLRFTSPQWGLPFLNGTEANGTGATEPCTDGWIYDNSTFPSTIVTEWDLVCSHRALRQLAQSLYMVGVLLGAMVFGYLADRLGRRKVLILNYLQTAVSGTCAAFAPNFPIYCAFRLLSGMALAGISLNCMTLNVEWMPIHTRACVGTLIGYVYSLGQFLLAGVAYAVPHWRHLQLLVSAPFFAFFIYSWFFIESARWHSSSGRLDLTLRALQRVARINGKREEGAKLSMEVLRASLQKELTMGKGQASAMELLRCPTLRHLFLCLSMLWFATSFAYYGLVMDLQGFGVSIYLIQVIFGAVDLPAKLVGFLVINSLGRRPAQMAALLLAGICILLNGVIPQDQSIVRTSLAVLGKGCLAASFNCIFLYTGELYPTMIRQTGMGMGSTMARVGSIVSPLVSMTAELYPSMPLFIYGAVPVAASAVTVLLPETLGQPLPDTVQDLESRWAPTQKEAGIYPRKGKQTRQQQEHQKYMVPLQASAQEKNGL

MATE1 = molecular target: T4, MATE1 (Homo sapiens, UniProt Q96FL8); assay: Baricitinib substrate study in MATE1-transfected HEK cells; assay type: in vitro ADME
T4 sequence (Q96FL8 1-570): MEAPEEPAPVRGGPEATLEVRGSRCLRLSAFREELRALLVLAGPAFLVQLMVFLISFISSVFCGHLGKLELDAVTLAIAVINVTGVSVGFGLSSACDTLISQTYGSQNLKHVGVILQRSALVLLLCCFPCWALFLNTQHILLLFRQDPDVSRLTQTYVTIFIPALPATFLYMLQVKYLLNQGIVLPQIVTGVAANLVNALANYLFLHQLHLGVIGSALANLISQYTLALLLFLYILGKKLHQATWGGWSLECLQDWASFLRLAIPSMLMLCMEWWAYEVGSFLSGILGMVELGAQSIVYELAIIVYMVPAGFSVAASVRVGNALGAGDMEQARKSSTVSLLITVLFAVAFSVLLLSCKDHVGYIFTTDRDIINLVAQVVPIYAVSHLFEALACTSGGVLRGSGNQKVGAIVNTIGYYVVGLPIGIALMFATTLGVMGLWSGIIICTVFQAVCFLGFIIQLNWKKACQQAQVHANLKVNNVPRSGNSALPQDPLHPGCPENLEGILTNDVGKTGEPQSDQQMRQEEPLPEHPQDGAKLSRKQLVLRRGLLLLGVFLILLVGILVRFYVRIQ

[2] = Clinical baricitinib-probenecid DDI study in healthy subjects; assay type: in vivo, human
OAT3 [3] = molecular target: T1, OAT3; assay: PBPK DDI simulations of baricitinib with OAT3 inhibitors
Plasma protein binding = assay type: in vitro ADME; conditions: human
[4] = observed, listed as baricitinib

With `CCS(=O)(=O)N1CC(CC#N)(n2cc(-c3ncnc4[nH]ccc34)cn2)C1` [Baricitinib] the OAT3 substrate (OAT3 [1]) was “substrate of OAT3”, the “Uptake into OAT3-transfected cells relative to control cells” value (OAT3 [1]; 1-min incubation) was “approximately double” and the “OAT3 Vmax” value (OAT3 [1]; PBPK input) was 70.76 pmol/min/10^6 cells. The “OAT3 Vmax” value (OAT3 [1]; average of two experiments) was 176.9 pmol/min/mg protein, the “OAT3 Vmax (individual experiments)” value (OAT3 [1]; each of two separate experiments) was 164.3 ± 7.97 pmol/min/mg protein and 189.5 ± 27.10 pmol/min/mg protein and the BCRP substrate (BCRP) was “substrate of BCRP”. For the same compound, the Papp A→B at 5 µM (BCRP; dog) was 0.83 ×10⁻⁶ cm/s, the Papp B→A at 5 µM (BCRP; dog) was 10.1 ×10⁻⁶ cm/s and the OAT1 substrate (OAT1) was “not a substrate”. The MATE1 substrate (MATE1) was “not a substrate”, the “Ae(0‐48), arithmetic mean (SD)” value ([2]; 4 mg baricitinib + probenecid) was 1.57 (0.191) mg and the “CL/F, geometric mean (CV)” value ([2]; 4 mg baricitinib + probenecid) was 8.33 (14) L/h. For the same compound, the “Ae(0‐48), arithmetic mean (SD)” value ([2]; 4 mg baricitinib only) was 2.60 (0.399) mg, the “CL/F, geometric mean (CV)” value ([2]; 4 mg baricitinib only) was 16.9 (22) L/h and the tolerability ([2]; healthy subjects, all drug-related treatment-emergent AEs mild) was “well tolerated”. The “increase of half-life in the presence of probenecid” value ([2]; human, in vivo) was 63%, the AUC ([2]; human, plasma, oral, 4 mg) was 236 ng·h/mL and the Cmax ([2]; human, plasma, oral, 4 mg) was 36.2 ng/mL. It also gave a Tmax ([2]; human, plasma, oral, 4 mg) of 1 h, a half-life ([2]; human, plasma, oral, 4 mg) of 7.28 h and a CL renal ([2]; human, urine and plasma, oral, 4 mg) of 183 mL/min. The “AUC(0‐∞) ratio of geometric LS means, baricitinib + probenecid : baricitinib only (90% CI)” value ([2]; observed) was 2.03 (1.91, 2.16) and 2.03(1.91‐2.16), the “CLr ratio of geometric LS means, baricitinib + probenecid : baricitinib only (90% CI)” value ([2]; observed) was 0.313 (0.289, 0.339) and the “Cmax ratio of geometric LS means, baricitinib + probenecid : baricitinib only (90% CI)” value ([2]; observed) was 1.03 (0.940, 1.13). For the same compound, the “AUC(0‐∞) ratio of geometric LS means, baricitinib + probenecid : baricitinib only (90% CI)” value [2, 4] was “twofold; also recorded: doubled”, the “Cmax ratio of geometric LS means, baricitinib + probenecid : baricitinib only (90% CI)” value [2, 4] was 1.03 and the “Observed/Predicted AUC ratio +/- probenecid” value (OAT3 [3]) was 1.0. For the same compound, the “Observed/Predicted Cmax ratio +/- probenecid” value (OAT3 [3]) was 0.9 and the fraction unbound (Plasma protein binding) was 0.5.
